In ChEMBL document CHEMBL5696442, “Discovery of type II inhibitors of TGFβ-activated kinase 1 (TAK1) and mitogen-activated protein kinase kinase kinase kinase 2 (MAP4K2)” (J Med Chem, 2015):
Calls of active or inactive are those of the source. No cut-off for these calls is given here.

Columns and labels:
[1] = biological target: Microtubule-associated serine/threonine-protein kinase 3 (Homo sapiens) (UniProt O60307); test: Inhibition of MAST3 Lys2 labeling site in human Huh-7 cell lysate at 1 uM by KiNativ Profiling analysis relative to control; format: subcellular
Microtubule-associated serine/threonine-protein kinase 3 (Homo sapiens), sequence (O60307 whole entry): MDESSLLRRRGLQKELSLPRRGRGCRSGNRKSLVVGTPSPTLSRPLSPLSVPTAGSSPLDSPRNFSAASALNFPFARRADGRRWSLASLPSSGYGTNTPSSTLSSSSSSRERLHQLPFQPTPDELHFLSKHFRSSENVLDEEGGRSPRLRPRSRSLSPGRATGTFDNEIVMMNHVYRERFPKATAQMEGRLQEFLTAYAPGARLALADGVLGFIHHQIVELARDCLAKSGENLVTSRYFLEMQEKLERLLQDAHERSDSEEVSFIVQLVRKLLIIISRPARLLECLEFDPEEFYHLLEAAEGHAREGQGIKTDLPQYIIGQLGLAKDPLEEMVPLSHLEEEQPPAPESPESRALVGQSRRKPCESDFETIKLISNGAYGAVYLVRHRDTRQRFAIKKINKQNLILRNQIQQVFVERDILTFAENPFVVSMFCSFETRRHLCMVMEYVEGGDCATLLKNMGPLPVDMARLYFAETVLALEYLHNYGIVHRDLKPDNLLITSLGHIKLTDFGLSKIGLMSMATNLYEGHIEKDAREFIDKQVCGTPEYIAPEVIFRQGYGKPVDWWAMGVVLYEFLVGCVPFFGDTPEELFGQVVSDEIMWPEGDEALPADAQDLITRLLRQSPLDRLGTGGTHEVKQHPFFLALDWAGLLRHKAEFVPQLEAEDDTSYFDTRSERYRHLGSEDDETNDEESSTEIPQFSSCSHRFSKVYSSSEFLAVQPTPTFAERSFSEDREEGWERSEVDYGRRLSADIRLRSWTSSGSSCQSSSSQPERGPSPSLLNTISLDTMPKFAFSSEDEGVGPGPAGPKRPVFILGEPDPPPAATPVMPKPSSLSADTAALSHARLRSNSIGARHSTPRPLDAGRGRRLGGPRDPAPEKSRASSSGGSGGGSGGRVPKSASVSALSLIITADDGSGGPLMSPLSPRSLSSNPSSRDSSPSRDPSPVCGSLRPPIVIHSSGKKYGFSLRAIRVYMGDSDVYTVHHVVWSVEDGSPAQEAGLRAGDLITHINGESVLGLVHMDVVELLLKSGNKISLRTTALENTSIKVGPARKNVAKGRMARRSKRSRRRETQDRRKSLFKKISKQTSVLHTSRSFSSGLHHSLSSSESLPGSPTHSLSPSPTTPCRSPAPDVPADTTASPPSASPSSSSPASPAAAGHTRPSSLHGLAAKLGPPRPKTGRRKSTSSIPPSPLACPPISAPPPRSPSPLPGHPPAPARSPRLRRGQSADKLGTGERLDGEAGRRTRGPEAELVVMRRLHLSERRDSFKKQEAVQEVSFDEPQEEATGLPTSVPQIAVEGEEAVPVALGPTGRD

[2] = biological target: Insulin receptor (Homo sapiens) (UniProt P06213); test: Inhibition of INSR (unknown origin) at 10 uM by Ambit Kinomescan binding assay relative to control
Insulin receptor (Homo sapiens), sequence (P06213 28-758 limits assumed): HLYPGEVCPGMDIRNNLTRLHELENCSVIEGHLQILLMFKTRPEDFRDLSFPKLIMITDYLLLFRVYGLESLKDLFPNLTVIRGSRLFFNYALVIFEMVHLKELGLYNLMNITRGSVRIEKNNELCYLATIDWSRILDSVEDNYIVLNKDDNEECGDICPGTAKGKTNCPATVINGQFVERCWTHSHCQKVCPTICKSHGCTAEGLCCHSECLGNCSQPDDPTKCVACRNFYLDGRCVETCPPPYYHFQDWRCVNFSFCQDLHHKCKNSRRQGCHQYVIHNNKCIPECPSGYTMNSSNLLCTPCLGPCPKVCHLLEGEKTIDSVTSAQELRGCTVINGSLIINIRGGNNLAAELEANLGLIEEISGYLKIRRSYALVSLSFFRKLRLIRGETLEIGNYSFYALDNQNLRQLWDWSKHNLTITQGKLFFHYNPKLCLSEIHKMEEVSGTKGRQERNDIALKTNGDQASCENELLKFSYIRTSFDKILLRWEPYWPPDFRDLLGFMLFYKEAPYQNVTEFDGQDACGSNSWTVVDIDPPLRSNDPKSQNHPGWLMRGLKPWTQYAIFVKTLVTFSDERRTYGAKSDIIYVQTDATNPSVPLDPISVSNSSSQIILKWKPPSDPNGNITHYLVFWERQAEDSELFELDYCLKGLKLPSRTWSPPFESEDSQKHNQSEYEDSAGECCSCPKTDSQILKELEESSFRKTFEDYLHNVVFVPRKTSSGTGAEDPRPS
Insulin receptor (Homo sapiens), sequence (P06213 763-1382 limits assumed): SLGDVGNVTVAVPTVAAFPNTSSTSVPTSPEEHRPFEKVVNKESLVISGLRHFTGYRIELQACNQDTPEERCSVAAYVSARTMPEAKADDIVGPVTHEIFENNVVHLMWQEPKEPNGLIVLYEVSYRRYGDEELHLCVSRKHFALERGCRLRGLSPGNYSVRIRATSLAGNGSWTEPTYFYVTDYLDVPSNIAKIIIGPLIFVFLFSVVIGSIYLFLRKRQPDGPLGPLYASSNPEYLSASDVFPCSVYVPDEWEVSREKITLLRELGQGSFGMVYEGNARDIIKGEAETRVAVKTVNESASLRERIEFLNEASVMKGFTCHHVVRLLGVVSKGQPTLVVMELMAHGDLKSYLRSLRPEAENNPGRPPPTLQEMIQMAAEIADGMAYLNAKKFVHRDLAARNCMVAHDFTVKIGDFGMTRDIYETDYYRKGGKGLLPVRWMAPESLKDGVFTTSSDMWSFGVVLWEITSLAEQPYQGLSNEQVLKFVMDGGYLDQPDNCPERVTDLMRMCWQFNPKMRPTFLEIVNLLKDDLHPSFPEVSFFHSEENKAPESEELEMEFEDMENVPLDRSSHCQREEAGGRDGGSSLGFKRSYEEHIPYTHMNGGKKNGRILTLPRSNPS

[3] = biological target: Insulin-like growth factor 1 receptor (Homo sapiens) (UniProt P08069); test: Inhibition of IGF1R (unknown origin) at 10 uM by Ambit Kinomescan binding assay
Insulin-like growth factor 1 receptor (Homo sapiens), sequence (P08069 31-736 limits assumed): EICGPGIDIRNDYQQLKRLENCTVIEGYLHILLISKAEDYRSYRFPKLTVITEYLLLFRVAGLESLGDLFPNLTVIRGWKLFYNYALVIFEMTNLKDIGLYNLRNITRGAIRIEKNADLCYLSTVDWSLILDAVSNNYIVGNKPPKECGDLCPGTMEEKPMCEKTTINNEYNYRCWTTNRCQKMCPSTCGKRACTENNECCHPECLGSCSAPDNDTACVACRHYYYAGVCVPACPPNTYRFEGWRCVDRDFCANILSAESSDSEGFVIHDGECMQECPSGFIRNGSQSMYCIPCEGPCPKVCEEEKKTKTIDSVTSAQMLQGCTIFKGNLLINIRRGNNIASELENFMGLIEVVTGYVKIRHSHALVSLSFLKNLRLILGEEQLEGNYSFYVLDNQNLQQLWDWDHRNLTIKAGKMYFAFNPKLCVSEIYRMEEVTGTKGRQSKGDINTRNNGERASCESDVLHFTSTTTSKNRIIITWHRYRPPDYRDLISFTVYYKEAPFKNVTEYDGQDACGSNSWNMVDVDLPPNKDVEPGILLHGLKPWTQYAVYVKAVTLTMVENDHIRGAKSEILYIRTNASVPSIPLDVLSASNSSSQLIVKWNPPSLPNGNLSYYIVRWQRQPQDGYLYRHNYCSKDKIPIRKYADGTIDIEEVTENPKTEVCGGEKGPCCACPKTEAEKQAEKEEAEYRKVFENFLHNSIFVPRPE
Insulin-like growth factor 1 receptor (Homo sapiens), sequence (P08069 741-1367 limits assumed): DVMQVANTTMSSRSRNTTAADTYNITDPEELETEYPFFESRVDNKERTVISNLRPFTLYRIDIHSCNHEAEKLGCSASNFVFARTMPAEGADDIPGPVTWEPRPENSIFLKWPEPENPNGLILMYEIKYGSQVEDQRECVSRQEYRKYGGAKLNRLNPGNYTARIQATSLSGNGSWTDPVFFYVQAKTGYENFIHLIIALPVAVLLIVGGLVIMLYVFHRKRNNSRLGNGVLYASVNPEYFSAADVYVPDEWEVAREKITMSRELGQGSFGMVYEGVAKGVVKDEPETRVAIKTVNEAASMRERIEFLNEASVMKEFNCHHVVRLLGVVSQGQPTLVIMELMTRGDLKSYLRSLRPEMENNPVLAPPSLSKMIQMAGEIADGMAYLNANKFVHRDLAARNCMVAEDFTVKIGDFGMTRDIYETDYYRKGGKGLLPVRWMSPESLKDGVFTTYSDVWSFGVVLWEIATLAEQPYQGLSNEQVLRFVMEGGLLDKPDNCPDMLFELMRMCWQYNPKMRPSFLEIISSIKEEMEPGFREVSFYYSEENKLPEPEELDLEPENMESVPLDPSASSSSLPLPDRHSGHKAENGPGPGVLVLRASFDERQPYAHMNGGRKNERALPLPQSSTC

[4] = system: Mast/stem cell growth factor receptor Kit (Homo sapiens), P10721 [V559D]; test: Inhibition of KIT V559D mutant (unknown origin) at 10 uM by Ambit Kinomescan binding assay relative to control
[5] = biological target: T1, Dual specificity mitogen-activated protein kinase kinase 4 (Homo sapiens) (UniProt P45985); test: Inhibition of MAP2K4 K2 labeling site harbouring IIHRDIKPSNILLDR in human Huh-7 cells at 1 uM by KiNativ Profiling analysis relative to control; format: cell-based
T1 sequence (whole entry): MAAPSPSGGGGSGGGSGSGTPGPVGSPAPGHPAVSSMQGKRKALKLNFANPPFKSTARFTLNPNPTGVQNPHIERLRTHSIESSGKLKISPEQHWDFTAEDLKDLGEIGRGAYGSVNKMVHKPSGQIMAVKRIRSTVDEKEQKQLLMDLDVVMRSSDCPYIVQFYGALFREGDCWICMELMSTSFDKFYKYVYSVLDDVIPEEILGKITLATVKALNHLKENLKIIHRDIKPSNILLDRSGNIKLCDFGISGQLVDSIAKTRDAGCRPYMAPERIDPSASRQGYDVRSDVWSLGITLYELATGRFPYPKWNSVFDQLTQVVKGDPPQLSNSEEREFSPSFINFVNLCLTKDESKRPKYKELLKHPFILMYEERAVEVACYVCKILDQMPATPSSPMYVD

[6] = biological target: 5'-AMP-activated protein kinase catalytic subunit alpha-2 (Homo sapiens) (UniProt P54646); test: Inhibition of AMPKa2 Lys2 labeling site in human A-375 cells at 0.05 uM by KiNativ Profiling analysis relative to control; format: cell-based
5'-AMP-activated protein kinase catalytic subunit alpha-2 (Homo sapiens), sequence (P54646 whole entry, looked up, canonical isoform): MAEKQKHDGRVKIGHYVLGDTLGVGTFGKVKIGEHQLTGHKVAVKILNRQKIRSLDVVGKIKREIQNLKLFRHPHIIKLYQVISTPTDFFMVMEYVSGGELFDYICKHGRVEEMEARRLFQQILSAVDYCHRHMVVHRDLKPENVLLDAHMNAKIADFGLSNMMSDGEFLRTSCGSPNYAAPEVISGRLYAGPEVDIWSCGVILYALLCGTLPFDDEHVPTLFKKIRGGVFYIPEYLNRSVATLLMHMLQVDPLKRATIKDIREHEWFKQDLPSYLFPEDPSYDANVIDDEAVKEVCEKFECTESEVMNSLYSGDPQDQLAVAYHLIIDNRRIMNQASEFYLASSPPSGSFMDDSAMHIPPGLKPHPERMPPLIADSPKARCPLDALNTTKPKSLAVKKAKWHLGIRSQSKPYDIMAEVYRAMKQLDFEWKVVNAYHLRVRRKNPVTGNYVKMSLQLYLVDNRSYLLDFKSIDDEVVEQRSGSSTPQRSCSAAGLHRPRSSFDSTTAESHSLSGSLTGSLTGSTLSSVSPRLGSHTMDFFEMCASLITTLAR

[7] = biological target: T2, Phosphatidylinositol 4,5-bisphosphate 3-kinase catalytic subunit delta isoform (Homo sapiens) (UniProt O00329); test: Inhibition of PIK3CD ATP labeling site in human A-375 cells at 0.5 uM by KiNativ Profiling analysis relative to control; format: cell-based
T2 sequence (whole entry): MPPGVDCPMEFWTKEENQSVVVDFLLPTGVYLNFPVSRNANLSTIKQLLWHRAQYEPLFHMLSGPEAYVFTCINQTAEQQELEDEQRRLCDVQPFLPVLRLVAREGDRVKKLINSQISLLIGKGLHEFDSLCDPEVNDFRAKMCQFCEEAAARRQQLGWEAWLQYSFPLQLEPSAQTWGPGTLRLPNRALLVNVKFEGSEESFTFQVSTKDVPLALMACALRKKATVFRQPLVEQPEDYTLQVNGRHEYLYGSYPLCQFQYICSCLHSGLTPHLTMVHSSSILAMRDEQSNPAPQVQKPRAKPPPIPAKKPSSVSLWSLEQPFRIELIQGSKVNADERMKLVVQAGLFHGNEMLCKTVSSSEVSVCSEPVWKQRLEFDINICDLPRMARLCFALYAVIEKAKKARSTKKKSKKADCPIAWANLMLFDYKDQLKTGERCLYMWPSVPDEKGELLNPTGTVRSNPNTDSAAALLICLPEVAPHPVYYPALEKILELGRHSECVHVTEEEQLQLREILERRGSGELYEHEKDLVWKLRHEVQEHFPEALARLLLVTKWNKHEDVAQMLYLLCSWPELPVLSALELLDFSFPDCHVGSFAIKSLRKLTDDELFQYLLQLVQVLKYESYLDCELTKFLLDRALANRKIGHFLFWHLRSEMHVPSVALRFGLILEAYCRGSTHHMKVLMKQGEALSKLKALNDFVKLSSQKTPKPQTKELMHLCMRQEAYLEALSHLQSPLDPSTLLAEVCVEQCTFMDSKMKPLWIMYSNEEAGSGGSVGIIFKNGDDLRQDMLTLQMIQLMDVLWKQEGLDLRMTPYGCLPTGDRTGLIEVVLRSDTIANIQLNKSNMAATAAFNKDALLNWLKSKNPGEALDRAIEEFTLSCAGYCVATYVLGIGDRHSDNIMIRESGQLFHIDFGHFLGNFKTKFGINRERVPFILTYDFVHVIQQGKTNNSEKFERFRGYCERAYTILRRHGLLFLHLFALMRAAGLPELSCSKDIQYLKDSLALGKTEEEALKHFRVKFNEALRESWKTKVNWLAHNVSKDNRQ

[8] = biological target: T3, Serine/threonine-protein kinase TAO3 (Homo sapiens) (UniProt Q9H2K8); test: Inhibition of TAO3 Lys2 labeling site in human A-375 cells at 5 uM by KiNativ Profiling analysis relative to control; format: cell-based
T3 sequence (whole entry): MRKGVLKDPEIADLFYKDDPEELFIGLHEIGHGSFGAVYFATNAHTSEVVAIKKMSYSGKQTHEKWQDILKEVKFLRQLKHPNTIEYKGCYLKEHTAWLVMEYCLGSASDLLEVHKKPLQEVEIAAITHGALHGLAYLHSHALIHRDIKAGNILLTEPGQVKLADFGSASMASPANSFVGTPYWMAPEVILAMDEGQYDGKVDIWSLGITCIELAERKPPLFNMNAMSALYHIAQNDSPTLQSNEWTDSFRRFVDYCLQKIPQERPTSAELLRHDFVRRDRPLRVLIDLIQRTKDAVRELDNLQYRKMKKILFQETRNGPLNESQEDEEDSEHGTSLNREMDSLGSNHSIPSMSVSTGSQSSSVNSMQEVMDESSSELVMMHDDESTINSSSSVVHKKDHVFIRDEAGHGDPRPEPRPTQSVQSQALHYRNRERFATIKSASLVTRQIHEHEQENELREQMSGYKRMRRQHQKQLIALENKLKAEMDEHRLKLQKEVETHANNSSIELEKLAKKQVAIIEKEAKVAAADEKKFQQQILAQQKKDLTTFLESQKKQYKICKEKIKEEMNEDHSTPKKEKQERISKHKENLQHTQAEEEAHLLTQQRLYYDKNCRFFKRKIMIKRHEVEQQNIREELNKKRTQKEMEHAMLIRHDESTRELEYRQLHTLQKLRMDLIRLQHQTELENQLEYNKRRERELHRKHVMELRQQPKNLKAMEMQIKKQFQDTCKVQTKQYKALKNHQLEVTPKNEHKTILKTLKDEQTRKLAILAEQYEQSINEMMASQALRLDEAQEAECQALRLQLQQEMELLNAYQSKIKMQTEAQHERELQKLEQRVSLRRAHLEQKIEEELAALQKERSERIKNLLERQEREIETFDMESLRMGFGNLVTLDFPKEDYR

[9] = biological target: Cyclin-dependent kinase 18 (Homo sapiens) (UniProt Q07002); test: Inhibition of PCTAIRE3 Lys1 labeling site harbouring SKLTENLVALKEIRLEHEEGAPCTAIR in human A-375 cells at 0.05 uM by KiNativ Profiling analysis relative to control; format: cell-based
Cyclin-dependent kinase 18 (Homo sapiens), sequence (Q07002 whole entry): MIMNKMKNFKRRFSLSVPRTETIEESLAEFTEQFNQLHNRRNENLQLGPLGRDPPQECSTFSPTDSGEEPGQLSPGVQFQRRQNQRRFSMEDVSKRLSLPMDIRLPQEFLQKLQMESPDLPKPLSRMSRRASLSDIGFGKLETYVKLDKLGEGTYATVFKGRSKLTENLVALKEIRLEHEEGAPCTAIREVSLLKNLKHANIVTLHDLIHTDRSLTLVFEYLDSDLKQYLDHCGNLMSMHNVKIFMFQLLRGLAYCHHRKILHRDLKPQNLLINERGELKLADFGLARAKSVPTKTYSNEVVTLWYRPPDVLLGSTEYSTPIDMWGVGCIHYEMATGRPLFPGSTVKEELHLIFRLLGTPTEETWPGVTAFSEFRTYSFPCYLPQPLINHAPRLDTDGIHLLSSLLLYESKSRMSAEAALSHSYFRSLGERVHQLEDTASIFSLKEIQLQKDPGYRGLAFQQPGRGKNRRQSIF

Structure (SMILES): CNc1cc(Oc2cc(C(=O)Nc3cc(N4CCN(C)CC4)cc(C(F)(F)F)c3)ccc2C)ncn1
- inhibition [1]: -0.3%

Structure (SMILES): CCN1CCN(Cc2ccc(NC(=O)c3ccc(C)c(Oc4ccnc5[nH]ccc45)c3)cc2C(F)(F)F)CC1
- inhibition [2]: 30%
- inhibition [3]: inactive
- inhibition [4]: 0%
- inhibition [5]: -0.9%

Structure (SMILES): CCN1CCN(Cc2ccc(NC(=O)c3ccc(C)c(/C=C/c4cnc5[nH]ccc5c4OC)c3)cc2C(F)(F)F)CC1
- inhibition [6]: 7.3%
- inhibition [7]: 4.2%
- inhibition [8]: 66.2%
- inhibition [9]: 2.7%
